Assay results published in patent US20230265104A1, “NOVEL HETEROCYCLIC COMPOUNDS” (PRISM BIOLAB CO., LTD., priority 2020, published 2023).

System: PANC-1 (human pancreatic cancer-derived cell line)
Assay: MTS assay on Panc-1 (human pancreas carcinoma cell line)
Format: cell-based
Settings: 144 h; for inhibition at 0.3125 µM: read-out: Growth inhibition (%) 0.3125 μM; for IC50: PANC-1, MTS method, cell survival 6 days after exposure, 4-parameter logistic fit; for inhibition at 30 µM: read-out: Growth inhibition (%) 30 μM; for inhibition at 0.15625 µM: read-out: Growth inhibition (%) 0.15625 μM; for inhibition at 10 µM: read-out: Growth inhibition (%) 10 μM
Experimental: Experimental Example: MTS Assay on Panc-1 (Human Pancreas Carcinoma Cell Line) cell line name: PANC-1 derived from: human pancreas glandular cancer purchased from: ATCC product code: CRL-1469 proliferation medium: D-MEM+10% FBS culture environment: 37° C., 5% CO2 seeding density: 5.0×10^5 cells/25 cm^2 solvent control substance: DMSO (HYBRI-MAX®, Sigma-Aldrich Corp.) test substance: Example compound (ID-1-ID-13) A DMSO solution of the test substance was prepared by serially diluting (common ratio 2) each test substance with DMSO.
A solvent control substance sample and a test substance sample were exposed to a human pancreatic cancer-derived cell line (PANC-1), and the survival rate of the cell 6 days later was measured by the MTS method. The measurement was performed 3 times and the average thereof was adopted. The survival rate of the cell in each test substance sample was calculated by the following formula 1 with the value at exposure of the solvent control substance sample as 100% survival rate. […]
survival rate (%)=100×absorbance of each test substance sample/absorbance of solvent control substance sample formula 1 Normalized values calculated by the following formula 2 from the absorbances of each sample at 492 nm and 630 nm and the absorbances of the blank were used as the absorbances in the above-mentioned formula 1. […]
normalized value (ABS492 nm-630 nm)=(ABSsa 492 nm-ABSsa 630 nm)−(ABSbl 492 nm-ABSbl 630 nm) ABSsa 492: absorbance of each sample at wavelength 492 nm ABSsa 630: absorbance of each sample at wavelength 630 nm ABSbl 492: absorbance of blank corresponding to each sample at wavelength 492 nm ABSbl 630: absorbance of blank corresponding to each sample at wavelength 630 nm formula 2 […]
The analysis was performed by using nplr package on R (The R Foundation for Statistical Computing) and estimating the logistic regression curve (4-parameter).

SMILES | IC50 [µM] | inhibition at 10 µM (PANC-1, MTS, 6 days) [%] | further results
CC(C)N1CCC(N2C[C@@H]3N(C(=O)/C=C/c4cnc5ccccc5n4)O[C@H](CC4CCCCC4)C(=O)N3[C@@H](CC(C)(C)C)C2=O)CC1 [ID-106, (3R,6S,9aS)-3-(cyclohexylmethyl)-8-(1-isopropylpiperidin-4-yl)-6-neopentyl-1-((E)-3-(quinoxalin-2-yl)acryloyl)tetrahydropyrazino[2,1-c][1,2,4]oxadiazine-4,7(3H,6H)-dione] |  |  | inhibition at 0.3125 µM (PANC-1, MTS, 6 days): 29.8%; inhibition at 1 µM (PANC-1, MTS, 6 days, 1 μM, read-out: Growth inhibition (%) 1 μM): 101%
CONC(=O)CCN1C[C@@H]2N(C(=O)/C=C/c3ccccn3)O[C@H](CC(C)C)C(=O)N2[C@@H](CC(C)C)C1=O [ID-28, 3-((3R,6S,9aS)-3,6-diisobutyl-4,7-dioxo-1-((E)-3-(pyridin-2-yl)acryloyl)hexahydropyrazino[2,1-c][1,2,4]oxadiazin-8(1H)-yl)—N-methoxypropanamide] | 16.2 |  | inhibition at 30 µM (PANC-1, MTS, 6 days): 96.2%
C#Cc1sc(/C=C/C(=O)N2O[C@H](CC(C)C)C(=O)N3[C@@H]2CN(C2CCN(C(C)C)CC2)C(=O)[C@@H]3CC(C)(C)C)nc1C#CCCCO [ID-100, (3R,6S,9aS)-1-((E)-3-(5-ethynyl-4-(5-hydroxypent-1-yn-1-yl)thiazol-2-yl)acryloyl)-3-isobutyl-8-(1-isopropylpiperidin-4-yl)-6-neopentyltetrahydropyrazino[2,1-c][1,2,4]oxadiazine-4,7(3H,6H)-dione] |  |  | inhibition at 0.15625 µM (PANC-1, MTS, 6 days): 99.8%
CC(C)C[C@H]1ON(C(=O)/C=C/c2ccccn2)[C@H]2CN(C3CCN(C(=O)c4ccccc4)CC3)C(=O)[C@H](CC(C)C)N2C1=O [ID-15, (3R,6S,9aS)-8-(1-benzoylpiperidin-4-yl)-3,6-diisobutyl-1-((E)-3-(pyridin-2-yl)acryloyl)tetrahydropyrazino[2,1-c][1,2,4]oxadiazine-4,7(3H,6H)-dione] | 5.8 |  | inhibition at 30 µM (PANC-1, MTS, 6 days): 99.9%
CC(C)C[C@H]1ON(C(=O)/C=C/c2ccccn2)[C@H]2CN(C3CCN(C)CC3)C(=O)[C@H](Cc3ccc(O)cc3)N2C1=O [ID-61, (3R,6S,9aS)-6-(4-hydroxybenzyl)-3-isobutyl-8-(1-methylpiperidin-4-yl)-1-((E)-3-(pyridin-2-yl)acryloyl)tetrahydropyrazino[2,1-c][1,2,4]oxadiazine-4,7(3H,6H)-dione] | 7.3 |  | 
CC(C)(C)C[C@H]1C(=O)N([C@@H]2CCN(CCCCO)C2)C[C@@H]2N(C(=O)/C=C/c3nc4ccccc4s3)O[C@H](C[C@H]3C[C@@H]3CCc3ccccc3)C(=O)N21 [ID-104, (3R,6S,9aS)-1-((E)-3-(benzo[d]thiazol-2-yl)acryloyl)-8-((R)-1-(4-hydroxybutyl)pyrrolidin-3-yl)-6-neopentyl-3-(((1R,2S)-2-phenethylcyclopropyl)methyl)tetrahydropyrazino[2,1-c][1,2,4]oxadiazine-4,7(3H,6H)-dione] |  |  | inhibition at 0.3125 µM (PANC-1, MTS, 6 days): 30.1%
CC(C)C[C@H]1ON(C(=O)/C=C/c2nn(C)c3ccccc23)[C@H]2CN(CCC(N)=O)C(=O)[C@H](CC(C)C)N2C1=O [ID-22, 3-((3R,6S,9aS)-3,6-diisobutyl-1-((E)-3-(1-methyl-1H-indazol-3-yl)acryloyl)-4,7-dioxohexahydropyrazino[2,1-c][1,2,4]oxadiazin-8(1H)-yl)propanamide] | 15.6 |  | inhibition at 30 µM (PANC-1, MTS, 6 days): 95.4%
C#Cc1sc(/C=C/C(=O)N2O[C@H](CC(C)C)C(=O)N3[C@@H]2CN(C2CCN(C)CC2)C(=O)[C@@H]3CC(C)(C)C)nc1C#CCCCO [ID-103, (3R,6S,9aS)-1-((E)-3-(5-ethynyl-4-(5-hydroxypent-1-yn-1-yl)thiazol-2-yl)acryloyl)-3-isobutyl-8-(1-methylpiperidin-4-yl)-6-neopentyltetrahydropyrazino[2,1-c][1,2,4]oxadiazine-4,7 (3H, 6H)-dione] |  |  | inhibition at 0.3125 µM (PANC-1, MTS, 6 days): 99.6%
CC(C)C[C@H]1ON(C(=O)/C=C/c2nc3cc(O)ccc3s2)[C@H]2CN(C3CCN(C(C)C)CC3)C(=O)[C@H](CC(C)(C)C)N2C1=O [ID-98, (3R,6S,9aS)-1-((E)-3-(5-hydroxybenzo[d]thiazol-2-yl)acryloyl)-3-isobutyl-8-(1-isopropylpiperidin-4-yl)-6-neopentyltetrahydropyrazino[2,1-c][1,2,4]oxadiazine-4,7(3H,6H)-dione] |  |  | inhibition at 0.15625 µM (PANC-1, MTS, 6 days): 61.7%
CC(C)C[C@H]1ON(C(=O)/C=C\c2ccccc2)[C@H]2CN(C3CCN(C)CC3)C(=O)[C@H](CC(C)C)N2C1=O [ID-38, (3R,6S,9aS)-3,6-diisobutyl-8-(1-methylpiperidin-4-yl)-1-((Z)-3-phenylacryloyl)tetrahydropyrazino[2,1-c] [1,2,4] oxadiazine-4,7 (3H, 6H)-dione] | 8 | 82.6 | 
CC(C)C[C@H]1ON(C(=O)/C=C/c2nc3ccccc3s2)[C@H]2CN(C3CCOCC3)C(=O)[C@H](CC(C)C)N2C1=O [ID-64, (3R,6S,9aS)-1-((E)-3-(benzo[d]thiazol-2-yl)acryloyl)-3,6-diisobutyl-8-(tetrahydro-2H-pyran-4-yl)tetrahydropyrazino[2,1-c][1,2,4]oxadiazine-4,7(3H,6H)-dione] | 0.88 |  | 
CSc1nccc(/C=C/C(=O)N2O[C@H](CC(C)C)C(=O)N3[C@@H]2CN([C@H]2CCN(CCCCO)C2)C(=O)[C@@H]3CC(C)(C)C)n1 [ID-78, (3R,6S,9aS)-8-((S)-1-(4-hydroxybutyl)pyrrolidin-3-yl)-3-isobutyl-1-((E)-3-(2-(methylthio)pyrimidin-4-yl)acryloyl)-6-neopentyltetrahydropyrazino[2,1-c][1,2,4]oxadiazine-4,7(3H,6H)-dione] |  |  | inhibition at 0.3125 µM (PANC-1, MTS, 6 days): 41.5%
CC(C)C[C@H]1ON(C(=O)/C=C/c2nc3cc(F)ccc3s2)[C@H]2CN(C3CCN(C)CC3)C(=O)[C@H](CC(C)C)N2C1=O [ID-52, (3R,6S,9aS)-1-((E)-3-(5-fluorobenzo[d]thiazol-2-yl)acryloyl)-3,6-diisobutyl-8-(1-methylpiperidin-4-yl)tetrahydropyrazino[2,1-c][1,2,4.]oxadiazine-4,7(3H,6H)-dione] | 0.48 | 101 | 
CC(C)C[C@H]1ON(C(=O)/C=C/c2nc(C#CCCCCO)cs2)[C@H]2CN([C@H]3CCN(CCCCO)C3)C(=O)[C@H](CC(C)(C)C)N2C1=O [ID-9, (3R,6S,9aS)-8-((S)-1-(4-hydroxybutyl)pyrrolidin-3-yl)-1-((E)-3-(4-(6-hydroxyhex-1-yn-1-yl)thiazol-2-yl)acryloyl)-3-isobutyl-6-neopentyltetrahydropyrazino[2,1-c][1,2,4]oxadiazine-4,7(3H,6H)-dione] | 0.099 |  | 
CC(C)C[C@H]1ON(C(=O)/C=C/[C@H]2CCCN2C)[C@H]2CN(CCC(N)=O)C(=O)[C@H](CC(C)C)N2C1=O [ID-43, 3-((3R,6S,9aS)-3,6-diisobutyl-1-((E)-3-((R)-1-methylpyrrolidin-2-yl)acryloyl)-4,7-dioxohexahydropyrazino[2,1-c][1,2,4]oxadiazin-8 (1H)-yl)propanamide] | 9.4 | 78.5 | 
CC(C)C[C@H]1ON(C(=O)/C=C/c2ccccn2)[C@H]2CN(C3CCN(Cc4ncccn4)CC3)C(=O)[C@H](CC(C)C)N2C1=O [ID-36, (3R,6S,9aS)-3,6-diisobutyl-1-((E)-3-(pyridin-2-yl)acryloyl)-8-(1-(pyrimidin-2-ylmethyl)piperidin-4-yl)tetrahydropyrazino[2,1-c][1,2,4]oxadiazine-4,7(3H,6H)-dione] |  | 76 | 
CC(C)C[C@H]1ON(C(=O)/C=C/c2ccccn2)[C@H]2CN(C3CCCN(C)C3)C(=O)[C@H](CC(C)C)N2C1=O (stereo partly drawn) [ID-65, (3R,6S,9aS)-3,6-diisobutyl-8-(1-methylpiperidin-3-yl)-1-((E)-3-(pyridin-2-yl)acryloyl)tetrahydropyrazino[2,1-c][1,2,4]oxadiazine-4,7(3H,6H)-dione] | 4.7 | 96.5 | 
CC(C)C[C@H]1ON(C(=O)/C=C/c2ccccn2)[C@H]2CN(C3CCN(C)CC3)C(=O)[C@H](Cc3ccccc3)N2C1=O [ID-66, (3R,6S,9aS)-6-benzyl-3-isobutyl-8-(1-methylpiperidin-4-yl)-1-((E)-3-(pyridin-2-yl)acryloyl)tetrahydropyrazino[2,1-c][1,2,4]oxadiazine-4,7(3H,6H)-dione] | 5.2 | 96.7 | 
CC(C)C[C@H]1ON(C(=O)/C=C/c2nc3cccnc3s2)[C@H]2CN(CCC(N)=O)C(=O)[C@H](CC(C)C)N2C1=O [ID-32, 3-((3R,6S,9aS)-3,6-diisobutyl-4,7-dioxo-1-((E)-3-(thiazolo[5,4-b]pyridin-2-yl)acryloyl)hexahydropyrazino[2,1-c][1,2,4]oxadiazin-8(1H)-yl)propanamide] | 0.62 | 101 | 
